Source: patent US6737383B1, “Herbicidal oxadiazolidines” (priority 1999, dated 2004)

What was measured:
[1] = system: bedstraw; experiment: Test B pre/postemergence bedstraw; type: in vivo, Galium aparine
Summary of the method: (§1)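 Test chemicals in a non-phytotoxic solvent mixture with surfactant were sprayed preemergence onto planted seeds and postemergence onto plants 2 to 18 cm tall (1- to 4-leaf stage). After twelve to sixteen days in a greenhouse, injury was visually rated against untreated controls from 0 (no effect) to 10 (complete control).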

[2] = system: blackgrass; experiment: Test B pre/postemergence blackgrass; type: in vivo, Alopecurus myosuroides
Summary of the method: as §1

[3] = system: surinam grass; experiment: Test B pre/postemergence surinam grass; type: in vivo, Brachiaria decumbens
Summary of the method: as §1

[4] = system: corn; experiment: Test B pre/postemergence corn; type: in vivo, Zea mays
Summary of the method: as §1

[5] = system: crabgrass; experiment: Test B pre/postemergence crabgrass; type: in vivo, Digitaria sanguinalis
Summary of the method: as §1

[6] = system: giant foxtail; experiment: Test B pre/postemergence giant foxtail; type: in vivo, Setaria faberii
Summary of the method: as §1

[7] = system: rape; experiment: Test B pre/postemergence rape; type: in vivo, Brassica napus
Summary of the method: as §1

[8] = system: sugar beet; experiment: Test B pre/postemergence sugar beet; type: in vivo, Beta vulgaris
Summary of the method: as §1

[9] = system: velvetleaf; experiment: Test B pre/postemergence velvetleaf; type: in vivo, Abutilon theophrasti
Summary of the method: as §1

[10] = system: wheat; experiment: Test B pre/postemergence wheat; type: in vivo, Triticum aestivum
Summary of the method: as §1

[11] = system: wild oat; experiment: Test B pre/postemergence wild oat; type: in vivo, Avena fatua
Summary of the method: as §1

[12] = system: purple nutsedge; experiment: Test B pre/postemergence purple nutsedge; type: in vivo, Cyperus rotundus
Summary of the method: as §1

[13] = system: rice; experiment: Test B flood test rice; type: in vivo, Oryza sativa
Summary of the method: (§2)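 Each value is a visual injury score relative to controls, with 10 meaning complete control and 0 no effect. Evaluation took place twelve to sixteen days after the 2-leaf-stage plants were treated and kept in the greenhouse.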

[14] = system: smallflower flatsedge; experiment: Test B flood test smallflower flatsedge; type: in vivo, Cyperus difformis
Summary of the method: as §2

[15] = system: duck salad; experiment: Test B flood test duck salad; type: in vivo, Heteranthera limosa
Summary of the method: as §2

[16] = system: bamyardgrass; experiment: Test B flood test barnyardgrass; type: in vivo, Echinochloa crus-galli
Summary of the method: as §2

[17] = Postemergence, Rate 125 g/ha, scale 0 to 10, 0 is no effect, 10 is complete control
[18] = Postemergence, Rate 250 g/ha, scale 0 to 10, 0 is no effect, 10 is complete control
[19] = Postemergence, Rate 500 g/ha, scale of 0 to 10 where 0 is no effect and 10 is complete control
[20] = Preemergence, Rate 62 g/ha, scale 0 to 10 (0 no effect, 10 complete control)
[21] = Preemergence, Rate 125 g/ha, scale of 0 to 10 where 0 is no effect and 10 is complete control
[22] = Preemergence, Rate 250 g/ha, scale of 0 to 10 where 0 is no effect and 10 is complete control
[23] = Preemergence, Rate 500 g/ha, scale 0 to 10, 0 is no effect, 10 is complete control
[24] = Rate 62 g/ha, Postemergence, scale of 0 to 10 where 0 is no effect and 10 is complete control
[25] = Preemergence, Rate 250 g/ha, scale 0 to 10, 0 is no effect, 10 is complete control
[26] = Rate 62 g/ha, flood test species, Pre-emergence, visual evaluation after twelve to sixteen days
[27] = Rate 125 g/ha, under heading Pre-emergence, flood test species, visual evaluation after twelve to sixteen days
[28] = Rate 250 g/ha, Pre-emergence, flood-test species, scale 0 to 10, 0 is no effect, 10 is complete control
[29] = Rate 500 g/ha, Pre-emergence, flood test species, scale 0 to 10 (0 no effect, 10 complete control)

SMILES: CC(C)N(C(=O)n1oc(=O)n(CC#N)c1=O)c1ccc(F)cc1 [Compound 395]
- Plant response rating, Bedstraw [1, 17]: 0
- Plant response rating, Bedstraw [1, 18]: 0
- Bedstraw plant response rating [1, 19]: 4
- Plant response rating, Bedstraw [1, 20]: 0
- Plant response rating, Bedstraw [1, 21]: 0
- Bedstraw plant response rating [1, 22]: 0
- Bedstraw plant response rating [1, 23]: 0
- Bedstraw plant response rating [1, 24]: 0
- Plant response rating, Blackgrass [2, 17]: 0
- Plant response rating, Blackgrass [2, 18]: 0
- Blackgrass plant response rating [2, 19]: 5
- Plant response rating, Blackgrass [2, 20]: 0
- Plant response rating, Blackgrass [2, 21]: 0
- Blackgrass plant response rating [2, 22]: 0
- Blackgrass plant response rating [2, 23]: 0
- Blackgrass plant response rating [2, 24]: 0
- Plant response rating, B. signalgrass [3, 17]: 0
- Plant response rating, B. signalgrass [3, 18]: 0
- B. signalgrass plant response rating [3, 19]: 0
- Plant response rating, B. signalgrass [3, 20]: 0
- Plant response rating, B. signalgrass [3, 21]: 0
- B. signalgrass plant response rating [3, 22]: 0
- B. signalgrass plant response rating ([3]; Preemergence, Rate 500 g/ha, scale of 0 to 10 where 0 is no effect and 10 is complete control): 0
- B. signalgrass plant response rating [3, 24]: 0
- Plant response rating, Corn [4, 17]: 0
- Plant response rating, Corn [4, 18]: 0
- Corn plant response rating [4, 19]: 0
- Plant response rating, Corn [4, 20]: 0
- Plant response rating, Corn [4, 21]: 0
- Corn plant response rating [4, 25]: 0
- Corn plant response rating [4, 23]: 0
- Corn plant response rating [4, 24]: 0
- Plant response rating, Crabgrass [5, 17]: 2
- Plant response rating, Crabgrass [5, 18]: 2
- Crabgrass plant response rating [5, 19]: 5
- Plant response rating, Crabgrass [5, 20]: 0
- Plant response rating, Crabgrass [5, 21]: 0
- Crabgrass plant response rating [5, 25]: 0
- Crabgrass plant response rating [5, 23]: 2
- Crabgrass plant response rating [5, 24]: 0
- Plant response rating, Giant foxtail [6, 17]: 3
- Plant response rating, Giant foxtail [6, 18]: 5
- Giant foxtail plant response rating [6, 19]: 6
- Plant response rating, Giant foxtail [6, 20]: 0
- Plant response rating, Giant foxtail [6, 21]: 0
- Giant foxtail plant response rating [6, 25]: 0
- Giant foxtail plant response rating [6, 23]: 2
- Giant foxtail plant response rating [6, 24]: 0
- Plant response rating, Rape [7, 18]: 0
- Plant response rating, Rape [7, 20]: 0
- Plant response rating, Rape [7, 21]: 0
- Rape plant response rating [7, 25]: 0
- Rape plant response rating [7, 23]: 0
- Rape plant response rating [7, 24]: 0
- Plant response rating, Sugarbeets [8, 18]: 0
- Sugarbeets plant response rating [8, 19]: 0
- Plant response rating, Sugarbeets [8, 20]: 0
- Plant response rating, Sugarbeets [8, 21]: 0
- Sugarbeets plant response rating [8, 25]: 0
- Sugarbeets plant response rating [8, 23]: 0
- Sugarbeets plant response rating [8, 24]: 0
- Plant response rating, Velvetleaf [9, 18]: 2
- Velvetleaf plant response rating [9, 19]: 2
- Plant response rating, Velvetleaf [9, 20]: 0
- Plant response rating, Velvetleaf [9, 21]: 0
- Velvetleaf plant response rating [9, 25]: 0
- Velvetleaf plant response rating [9, 23]: 0
- Velvetleaf plant response rating [9, 24]: 0
- Wheat plant response rating [10, 19]: 3
- Plant response rating, Wheat [10, 20]: 0
- Plant response rating, Wheat [10, 21]: 0
- Wheat plant response rating [10, 25]: 0
- Wheat plant response rating [10, 23]: 0
- Wheat plant response rating [10, 24]: 0
- Wild oats plant response rating [11, 19]: 3
- Plant response rating, Wild oats [11, 20]: 0
- Plant response rating, Wild oats [11, 21]: 0
- Wild oats plant response rating [11, 25]: 0
- Wild oats plant response rating [11, 23]: 0
- Wild oats plant response rating [11, 24]: 0
- Plant response rating, Nutsedge [12, 18]: 0
- Nutsedge plant response rating [12, 19]: 0
- Plant response rating, Nutsedge [12, 20]: 0
- Plant response rating, Nutsedge [12, 21]: 0
- Nutsedge plant response rating [12, 25]: 0
- Nutsedge plant response rating [12, 23]: 0
- Nutsedge plant response rating [12, 24]: 0
- Plant response rating, Rice (0 to 10 scale, 0 is no effect, 10 is complete control) [13, 26]: 0
- Rice plant response rating (0 to 10 scale, 0 is no effect, 10 is complete control) [13, 27]: 0
- Rice plant response rating [13, 28]: 0
- Rice plant response rating [13, 29]: 0
- Plant response rating, S. Flatsedge (0 to 10 scale, 0 is no effect, 10 is complete control) [14, 26]: 0
- S. Flatsedge plant response rating (0 to 10 scale, 0 is no effect, 10 is complete control) [14, 27]: 0
- S. Flatsedge plant response rating [14, 28]: 0
- S. Flatsedge plant response rating [14, 29]: 0
- Plant response rating, Ducksalad (0 to 10 scale, 0 is no effect, 10 is complete control) [15, 26]: 0
- Ducksalad plant response rating (0 to 10 scale, 0 is no effect, 10 is complete control) [15, 27]: 0
- Ducksalad plant response rating [15, 28]: 0
- Ducksalad plant response rating [15, 29]: 0
- Plant response rating, Barnyardgrass (0 to 10 scale, 0 is no effect, 10 is complete control) [16, 26]: 0
- Barnyardgrass plant response rating (0 to 10 scale, 0 is no effect, 10 is complete control) [16, 27]: 0
- Barnyardgrass plant response rating [16, 28]: 0
- Barnyardgrass plant response rating [16, 29]: 0
